In brackets after ≈: the same amount, converted by molar mass. Where two headings read alike, the source gives them in different places.
Tests used:
Experiment in all cases: MIC, agar dilution test (Denley multipoint inoculator; Iso-sensitest agar)
Type in all cases: cell-based
Escherichia coli Neumann = settings: 37° C., about 20 hours, about 10^4 colony-forming particles
Description: (§1) The minimum inhibitory concentrations (MIC) were determined by the series dilution method on Iso-Sensitest agar (Oxoid). For each test substance, a series of agar plates which contained concentrations of the active compound which decreased by a dilution factor of two each time was prepared. The agar plates were inoculated with a multipoint inoculator (Denley). Overnight cultures of the pathogens which had first been diluted so that each inoculation point contained about 10^4 colony-forming particles were used for the inoculation. The inoculated agar plates were incubated at 37° C. and the germ growth was read off after about 20 hours. The MIC value (μg/ml) indicates the lowest active compound concentration at which no germ growth was to be detected with the naked eye.
(§2) The MIC values of some of the compounds according to the invention are shown in comparison with ciprofloxacin in the following table.
(§3) MIC values (mg/l) determined by the agar dilution
(§4) test (Denley multipoint inoculator; Iso-sensitest agar)

[1] = system: Staphylococcus aureus FK 422; settings: read-out: MIC values
Description: as §1, §2, §3, §4

Proleus mirabilis 8223 = settings: 37° C., about 20 hours, about 10^4 colony-forming particles
Description: as §1, §2, §3, §4

Proleus vulgaris 1017 = settings: 37° C., about 20 hours, about 10^4 colony-forming particles
Description: as §1, §2, §3, §4

[2] = system: Enterococcus faecalis 9790; settings: read-out: MIC values
Description: as §1, §2, §3, §4

[3] = system: Staphylococcus aureus 1756; settings: read-out: MIC values
Description: as §1, §2, §3, §4

[4] = system: Staphylococcus aureus 133; settings: read-out: MIC values
Description: as §1, §2, §3, §4

Morganella morganii 932 = settings: 37° C., about 20 hours, about 10^4 colony-forming particles
Description: as §1, §2, §3, §4

[5] = system: Enterococcus faecalis 27101; settings: read-out: MIC values
Description: as §1, §2, §3, §4

[6] = system: Providencia stuartei 12052; settings: 37° C., about 20 hours, about 10^4 colony-forming particles
Description: as §1, §2, §3, §4

[7] = FK422, Staphylococcus aureus FK 422, 37° C., about 20 hours, about 10^4 colony-forming particles
[8] = Enterococcus faecalis 9790, 37° C., about 20 hours, about 10^4 colony-forming particles
[9] = Staphylococcus aureus 1756, 37° C., about 20 hours, about 10^4 colony-forming particles
[10] = Staphylococcus aureus 133, 37° C., about 20 hours, about 10^4 colony-forming particles
[11] = Enterococcus faecalis 27101, 37° C., about 20 hours, about 10^4 colony-forming particles

Structure (SMILES) | MIC (Escherichia coli Neumann) | MIC [1, 7] | MIC (Proleus mirabilis 8223) | MIC (Proleus vulgaris 1017) | MIC [2, 8] | MIC [3, 9] | MIC [4, 10] | MIC (Morganella morganii 932) | MIC [5, 11] | MIC [6] | MIC ([1]; Staphylococcus aureus, FK422, 20 h) | MIC ([2]; Enterococcus faecalis, 9790, 20 h) | MIC ([3]; Staphylococcus aureus, 1756, 20 h) | MIC ([4]; Staphylococcus aureus, 133, 20 h) | MIC ([5]; Enterococcus faecalis, 27101, 20 h)
CO[C@@H]1CN(c2c(F)cc3c(=O)c(C(=O)O)cn(C4CC4)c3c2F)C[C@H]1N.Cl (relative stereo) [Example 1, 7-(trans-3-amino-4-methoxy-1-pyrrolidinyl)-1-cyclopropyl-6,8-difluoro-4-oxo-3-quinolinecarboxylic acid hydrochloride] | ≤ 0.015 µg/mL | 0.06 µg/mL | 1 µg/mL | ≤ 0.015 µg/mL | 0.125 µg/mL | 0.06 µg/mL | 0.06 µg/mL | ≤ 0.015 µg/mL | 0.125 µg/mL | 1 µg/mL | – | – | – | – | –
CO[C@@H]1CN(c2cc3c(cc2F)c(=O)c(C(=O)O)cn3C2CC2)C[C@H]1N.Cl (relative stereo) [Example 2, 7-(trans-3-Amino-4-methoxy-1-pyrrolidinyl)-1-cyclopropyl-6-fluoro-4-oxo-3-quinolinecarboxylic acid hydrochloride] | ≤ 0.015 µg/mL | 0.125 µg/mL | 4 µg/mL | 0.125 µg/mL | 0.5 µg/mL | 0.125 µg/mL | 0.125 µg/mL | 0.03 µg/mL | – | 4 µg/mL | – | – | – | – | –
CO[C@H]1CN(c2c(F)cc3c(=O)c(C(=O)O)cn(C4CC4)c3c2F)C[C@H]1N.Cl (relative stereo) [Example 3, 7-(cis-3-Amino-4-methoxy-1-pyrrolidinyl)-1-cyclopropyl-6,8-difluoro-4-oxo-3-quinolinecarboxylic acid hydrochloride] | ≤ 0.015 µg/mL | 0.06 µg/mL | 1 µg/mL | ≤ 0.015 µg/mL | 0.25 µg/mL | 0.06 µg/mL | 0.03 µg/mL | 0.03 µg/mL | 0.125 µg/mL | 2 µg/mL | – | – | – | – | –
CO[C@H]1CN(c2c(F)cc3c(=O)c(C(=O)O)cn(C4CC4)c3c2Cl)C[C@H]1N.O=C(O)C(F)(F)F (relative stereo) [Example 4, 7-(cis-3-amino-4-methoxy-1-pyrrolidinyl)-8-chloro-1-cyclopropyl-6-fluoro-1,4-dihydro-4-oxo-3-quinolinecarboxylic acid trifluoroacetate] | ≤ 0.015 µg/mL | ≤ 0.016 µg/mL | 0.5 µg/mL | ≤ 0.015 µg/mL | 0.06 µg/mL | ≤ 0.015 µg/mL | ≤ 0.015 µg/mL | ≤ 0.015 µg/mL | 0.06 µg/mL | 0.5 µg/mL | – | – | – | – | –
CO[C@H]1CN(c2cc3c(cc2F)c(=O)c(C(=O)O)cn3C2CC2)C[C@H]1N.Cl (relative stereo) [Example 5, 7-(cis-3-Amino-4-methoxy-1-pyrrolidinyl)-1-cyclopropyl-6-fluoro-1,4-dihydro-4-oxo-3-quinolinecarboxylic acid hydrochloride] | ≤ 0.015 µg/mL | 0.125 µg/mL | 2 µg/mL | 0.03 µg/mL | 0.25 µg/mL | 0.125 µg/mL | 0.125 µg/mL | ≤ 0.015 µg/mL | 0.25 µg/mL | 4 µg/mL | – | – | – | – | –
O=C(O)c1cn(C2CC2)c2cc(N3CCNCC3)c(F)cc2c1=O [Ciprofloxacin, ciprofloxacin, reference compound] | ≤ 0.015 µg/mL | – | 1 µg/mL (≈ 3.02 µM) | ≤ 0.015 µg/mL | – | – | – | ≤ 0.015 µg/mL | – | 4 µg/mL (≈ 12.1 µM) | 0.25 µg/mL (≈ 0.754 µM) | 0.25 µg/mL (≈ 0.754 µM) | 0.25 µg/mL (≈ 0.754 µM) | 0.25 µg/mL (≈ 0.754 µM) | 0.05 µg/mL (≈ 0.151 µM)
O=C(O)c1cn(C2CC2)c2c(F)c(N3CC4NCCOC4C3)c(F)cc2c1=O (centres unmarked) [Example 8, 1-cyclopropyl-6,8-difluoro-1,4-dihydro-7-(2-oxa-5,8-diazabicyclo[4.3.0]non-8-yl)-4-oxo-3-quinolinecarboxylic acid] | ≤ 0.015 µg/mL | 0.03 µg/mL (≈ 0.0767 µM) | 2 µg/mL (≈ 5.11 µM) | 0.06 µg/mL (≈ 0.153 µM) | 0.125 µg/mL (≈ 0.319 µM) | 0.03 µg/mL (≈ 0.0767 µM) | 0.03 µg/mL (≈ 0.0767 µM) | 0.06 µg/mL (≈ 0.153 µM) | 0.125 µg/mL (≈ 0.319 µM) | 4 µg/mL (≈ 10.2 µM) | – | – | – | – | –
CN1CCOC2CN(c3c(F)cc4c(=O)c(C(=O)O)cn(C5CC5)c4c3F)CC21 (centres unmarked) [Example 9, 1-cyclopropyl-6,8-difluoro-1,4-dihydro-7-(5-methyl-2-oxa-5,8-diazabicyclo[4.3.0]non-8-yl)-4-oxo-3-quinolinecarboxylic acid] | 0.25 µg/mL (≈ 0.617 µM) | 0.06 µg/mL (≈ 0.148 µM) | 8 µg/mL (≈ 19.7 µM) | 0.5 µg/mL (≈ 1.23 µM) | 0.25 µg/mL (≈ 0.617 µM) | 0.06 µg/mL (≈ 0.148 µM) | 0.06 µg/mL (≈ 0.148 µM) | 0.5 µg/mL (≈ 1.23 µM) | 0.25 µg/mL (≈ 0.617 µM) | 32 µg/mL (≈ 78.9 µM) | – | – | – | – | –
CN1CCOC2CN(c3cc4c(cc3F)c(=O)c(C(=O)O)cn4C3CC3)CC21 (centres unmarked) [Example 10, 1-cyclopropyl-6-fluoro-1,4-dihydro-7-(5-methyl-2-oxa-5,8-diazabicyclo[4.3.0]non-8-yl)-4-oxo-3-quinolinecarboxylic acid] | 0.125 µg/mL (≈ 0.323 µM) | 0.125 µg/mL (≈ 0.323 µM) | 16 µg/mL (≈ 41.3 µM) | 1 µg/mL (≈ 2.58 µM) | 2 µg/mL (≈ 5.16 µM) | 0.125 µg/mL (≈ 0.323 µM) | 0.125 µg/mL (≈ 0.323 µM) | 0.5 µg/mL (≈ 1.29 µM) | 2 µg/mL (≈ 5.16 µM) | 64 µg/mL (≈ 165 µM) | – | – | – | – | –
CN1CCCC2CN(c3c(F)cc4c(=O)c(C(=O)O)cn(C5CC5)c4c3F)CC21 (centres unmarked) [Example 13, 1-cyclopropyl-6,8-difluoro-1,4-dihydro-7-(2-methyl-2,8-diazabicyclo[4.3.0]non-8-yl)-4-oxo-3-quinolinecarboxylic acid] | 0.06 µg/mL (≈ 0.149 µM) | 0.06 µg/mL (≈ 0.149 µM) | 1 µg/mL (≈ 2.48 µM) | 0.03 µg/mL (≈ 0.0744 µM) | 0.25 µg/mL (≈ 0.62 µM) | 0.06 µg/mL (≈ 0.149 µM) | 0.06 µg/mL (≈ 0.149 µM) | 0.125 µg/mL (≈ 0.31 µM) | 0.125 µg/mL (≈ 0.31 µM) | 2 µg/mL (≈ 4.96 µM) | – | – | – | – | –
CN1CCCC2CN(c3cc4c(cc3F)c(=O)c(C(=O)O)cn4C3CC3)CC21 (centres unmarked) [Example 14, 1-cyclopropyl-6-fluoro-1,4-dihydro-7-(2-methyl-2,8-diazabicyclo[4.3.0]non-8-yl)-4-oxo-3-quinolinecarboxylic acid] | 0.06 µg/mL (≈ 0.156 µM) | 0.25 µg/mL (≈ 0.649 µM) | 4 µg/mL (≈ 10.4 µM) | 0.5 µg/mL (≈ 1.3 µM) | 0.5 µg/mL (≈ 1.3 µM) | 0.25 µg/mL (≈ 0.649 µM) | 0.25 µg/mL (≈ 0.649 µM) | 0.25 µg/mL (≈ 0.649 µM) | 0.25 µg/mL (≈ 0.649 µM) | 4 µg/mL (≈ 10.4 µM) | – | – | – | – | –
O=C(O)c1cn(C2CC2)c2c(F)c(N3CC4CCCNC4C3)c(F)cc2c1=O (centres unmarked) [Example 15, 1-cyclopropyl-7-(2,8-diazabicyclo[4.3.0]non-8-yl)-6,8-difluoro-1,4-dihydro-4-oxo-3-quinolinecarboxylic acid] | ≤ 0.015 µg/mL | 0.03 µg/mL (≈ 0.077 µM) | 0.5 µg/mL (≈ 1.28 µM) | 0.03 µg/mL (≈ 0.077 µM) | – | 0.03 µg/mL (≈ 0.077 µM) | 0.03 µg/mL (≈ 0.077 µM) | 0.03 µg/mL (≈ 0.077 µM) | 0.03 µg/mL (≈ 0.077 µM) | 1 µg/mL (≈ 2.57 µM) | – | – | – | – | –
O=C(O)c1cn(C2CC2)c2cc(N3CC4CCNC4C3)c(F)cc2c1=O (centres unmarked) [Example 16, 1-cyclopropyl-7-(2,7-diazabicyclo[3.3.0]oct-7-yl)-6-fluoro-1,4-dihydro-4-oxo-3-quinolinecarboxylic acid] | 0.06 µg/mL (≈ 0.168 µM) | 0.125 µg/mL (≈ 0.35 µM) | 4 µg/mL (≈ 11.2 µM) | 0.06 µg/mL (≈ 0.168 µM) | 0.5 µg/mL (≈ 1.4 µM) | 0.125 µg/mL (≈ 0.35 µM) | 0.125 µg/mL (≈ 0.35 µM) | 0.06 µg/mL (≈ 0.168 µM) | 0.5 µg/mL (≈ 1.4 µM) | 32 µg/mL (≈ 89.5 µM) | – | – | – | – | –
